Key:
[1] = 101.33 kPa, Crystal, Thin-film microcalorimeter
[2] = molar heat capacity at constant pressure; details: 101.33 kPa, Crystal, Thin-film microcalorimeter

[O-2].[Zn+2] [zinc(II) oxide]
Details	molar entropy, [1] [J/K/mol]	molar heat capacity at constant pressure, [2] [J/K/mol]
1 K	2e-05	6e-05
1.906 K	–	0.0004
2 K	0.0001	0.0004
2.105 K	–	0.0005
2.329 K	–	0.0007
2.579 K	–	0.0009
2.856 K	–	0.0013
3 K	0.0005	0.0015
3.169 K	–	0.0018
3.509 K	–	0.0024
3.893 K	–	0.0033
4 K	0.0012	0.0036
4.319 K	–	0.0045
4.794 K	–	0.0062
5 K	0.0023	0.007
5.322 K	–	0.0085
5.907 K	–	0.0115
6 K	0.004	0.0121
6.557 K	–	0.0158
7 K	0.0064	0.0193
7.279 K	–	0.0217
8 K	0.0096	0.0288
8.084 K	–	0.0296
8.978 K	–	0.0409
9 K	0.0136	0.0414
9.969 K	–	0.0573
10 K	0.0188	0.0577
11 K	0.0252	0.0785
11.07 K	–	0.0803
12 K	0.0332	0.1048
12.3 K	–	0.1145
13 K	0.0428	0.1378
13.64 K	–	0.1629
14 K	0.0545	0.1786
15 K	0.0684	0.2282
15.18 K	–	0.237
16 K	0.085	0.2876
16.82 K	–	0.3415
17 K	0.1045	0.3576
18 K	0.1272	0.439
18.66 K	–	0.5019
19 K	0.1533	0.5323
20 K	0.1833	0.6378
20.68 K	–	0.718
22.98 K	–	1.028
25 K	0.3964	1.349
25.55 K	–	1.448
28.39 K	–	1.989
30 K	0.7254	2.327
31.54 K	–	2.658
35 K	1.169	3.48
35.05 K	–	3.48
38.93 K	–	4.451
40 K	1.714	4.713
43.22 K	–	5.533
45 K	2.341	5.965
48.01 K	–	6.726
50 K	3.035	7.218
53.32 K	–	8.042
55 K	3.781	8.463
59.21 K	–	9.463
60 K	4.569	9.606
65 K	5.382	10.71
65.75 K	–	10.92
70 K	6.216	11.8
73.03 K	–	12.44
75 K	7.065	12.85
80 K	7.928	13.87
81.09 K	–	14.11
85 K	8.798	14.86
90 K	9.675	15.83
90.06 K	–	15.91
95 K	10.56	16.77
99.87 K	–	17.65
100 K	11.44	17.69
110 K	13.21	19.46
110.46 K	–	19.47
120 K	14.98	21.16
120.49 K	–	21.17
130 K	16.73	22.78
130.48 K	–	22.84
140 K	18.48	24.34
140.63 K	–	24.44
150 K	20.21	25.82
150.79 K	–	25.91
160 K	21.92	27.24
160.85 K	–	27.33
170 K	23.61	28.58
170.76 K	–	28.78
180 K	25.28	29.85
181.03 K	–	30.05
190 K	26.93	31.05
191.32 K	–	31.22
200 K	28.55	32.19
201.42 K	–	32.29
210 K	30.15	33.26
211.59 K	–	33.41
220 K	31.72	34.27
221.8 K	–	34.44
230 K	33.26	35.22
232 K	–	35.5
240 K	34.78	36.12
242.17 K	–	36.29
250 K	36.27	36.96
252.15 K	–	37.15
260 K	37.74	37.76
262.28 K	–	37.93
270 K	39.18	38.5
272.28 K	–	38.59
273.15 K	39.63	38.73
280 K	40.59	39.2
282.48 K	–	39.3
290 K	41.98	39.86
292.54 K	–	39.86
298.15 K	43.09	40.36
300 K	43.34	40.48
302.58 K	–	40.86

Reference: the NIST ThermoML archive (doi:10.1016/j.jct.2013.01.004)
